From patent publication CN106905199A, “一种基于聚集诱导发光原理用于选择性检测半胱氨酸的荧光试剂的合成及应用” (Gannan Normal University, priority 2017, dated 2017)

Assays:
[1] = Response time of TPENNO2 to Cys (fluorescence vs incubation time); settings: 25 μM TPENNO2, PBS (50 mM, pH 7.4, 2.5% DMSO), 200 μM Cys, 37℃
[2] = Reaction kinetics of TPENNO2 with the thiol of GSH
[3] = Reaction kinetics of TPENNO2 with the thiol of Cys
[4] = Selectivity test of TPENNO2: GSH; settings: 300 μM GSH, 37℃, 30 min, Ex=341 nm
[5] = system: thiol compounds in HeLa cells [HeLa细胞内巯基化合物]; test: Fluorescence imaging of intracellular thiols in HeLa cells; format: cell-based, human
[6] = Selectivity test of TPENNO2: Hcy; settings: 300 μM Hcy, 37℃, 30 min, Ex=341 nm
[7] = Selectivity test of TPENNO2: essential amino acids; settings: 25 μM TPENNO2 in PBS, 300 μM analyte, 37℃, 30 min, Ex=341 nm

O=[N+]([O-])c1ccc(S(=O)(=O)Nc2ccc(C(=C(c3ccccc3)c3ccccc3)c3ccccc3)cc2)c([N+](=O)[O-])c1 [TPENNO2]
incubation time after which fluorescence intensity is essentially saturated [1]: 30 min
first-order reaction kinetic constant with the thiol of GSH [2]: 0.0048 min⁻¹
first-order reaction kinetic constant with the thiol of Cys [3]: 0.13 min⁻¹
change of fluorescence intensity after reaction with GSH ([4]; 25 μM TPENNO2 in PBS): 没有明显增强
interference of GSH with Cys detection [4]: 干扰均较小
fluorescence signal in HeLa cells ([5]; 4 μM TPENNO2, 20 min, no pretreatment, Ex 405 nm, 450-550 nm collected): 绿色荧光信号
fluorescence signal in HeLa cells after Cys pretreatment ([5]; 0.5 mM Cys 24 h, then 4 μM TPENNO2, 20 min): 荧光信号增强
fluorescence signal in HeLa cells after NEM pretreatment ([5]; 0.5 mM NEM (N-ethylmaleimide, thiol-consuming) 15 min, then 4 μM TPENNO2, 20 min): 荧光信号减弱
change of fluorescence intensity after reaction with Hcy ([6]; 25 μM TPENNO2 in PBS): 没有明显增强
interference of Hcy with Cys detection [6]: 干扰均较小
change of fluorescence intensity after reaction with essential amino acids other than Cys [7]: 没有明显增强
